In PMC3894558, “Chemical signatures and new drug targets for gametocytocidal drug development” (Scientific Reports, 2014):
Where two headings read alike, the source gives them in different places.

System: P. falciparum 3D7 gametocytes
Experiment: alamarBlue gametocyte viability assay, strain 3D7
Assay type: cell-based, Plasmodium falciparum
Conditions: Malaria Box; for Max Resp: DMSO set at 0%, 100 nM epoxomicin set at -100%; for Curve Class / IC50: stages III-V 3D7 gametocytes; for IC50: 11 concentrations, 1:3 dilution; call rule not given here

Structure (SMILES)	IC50 (read-out: IC50) [µM]	IC50	Max Resp [%]	Curve Class
CCOC(=O)C1=CN(C)C=C(C(=O)OCC)C1c1cc(Br)c(OCC)c(OC)c1 [MMV006656]	14.8		-72	-2.2
Cc1cc(=O)oc2c1ccc1oc(C(=O)c3ccccc3)c(C)c12 [MMV006753]		Inactive	3	4
CCOc1c(Br)cc(C2C(C(=O)OC)=CN(C)C=C2C(=O)OC)cc1OC [MMV006764]	14.8		-76	-2.2
COc1cc2cc(C(=O)Nc3ccccc3)c(N)nc2cc1OC [MMV006767]	37.2		-53	-2.2
CC(C)CCNCC(O)Cn1c2ccccc2c2ccccc21.Cl (stereo not drawn) [MMV006787]	2.64		-94	-1.1
CCCCc1c(C)nc2c(OC)cccc2c1O [MMV006820]		Inactive	24	4
COc1ccc(Nc2cc(C)nc(NCc3ccccc3)n2)cc1 [MMV006825]	23.5		-74	-2.2
O=C(Nc1ccc(-c2nc3cc(NC(=O)c4ccc(Cl)cc4)ccc3[nH]2)cc1)c1ccc(Cl)cc1 [MMV006962]	11.8		-94	-2.1
CCOc1ccc(CN2CCN(CC(O)COc3ccc(OCC(O)CN4CCN(Cc5ccc(OCC)cc5)CC4)cc3)CC2)cc1 (stereo not drawn) [MMV007092]	7.43		-94	-1.1
c1ccc(/C2=N/c3ccccc3/N=C(/c3ccccc3)c3ccccc32)cc1 [MMV007113]		Inactive	-5	4
CCOC(=O)c1c[nH]c2ccc(CC)cc2c1=O [MMV007116]		Inactive	32	4
Cc1ccc(N2C3c4ccccc4N(S(=O)(=O)c4ccc(C)cc4)C2c2ccccc2N3S(=O)(=O)c2ccc(C)cc2)cc1 [MMV007160]		Inactive	-3	4
COc1ccccc1N1C(=N)SC(=Cc2ccc(OCc3ccccc3F)cc2)C1=O [MMV007199]		Inactive	-2	4
Brc1ccc(Nc2nc3ccccc3nc2Nc2ccc(Br)cc2)cc1 [MMV007224]	20.9		-96	-2.1
Cc1cccc(N2C(=O)C3C(C2=O)C2(c4ccccc4)C(=O)C3(c3ccccc3)C(c3ccc4c(c3)OCO4)=C2c2ccc3c(c2)OCO3)c1 (stereo not drawn) [MMV007228]		Inactive	-1	4
COc1cc(-c2nc(-c3ccc(Sc4ccccc4)cc3)c(-c3ccccc3)[nH]2)cc(OC)c1O [MMV007273]	29.6		-62	-2.2
COc1ccc(-c2nc3cc(Cc4ccc5[nH]c(-c6ccc(OC)cc6)nc5c4)ccc3[nH]2)cc1 [MMV007384]	37.2		-59	-2.2
Cc1ccccc1OCCSc1nc2ccc(NC(=O)c3cccs3)cc2s1 [MMV007396]		Inactive	23	4
COc1cc2c3cc1Oc1c(OC)c(OC)cc4c1C(Cc1ccc(O)c(c1)Oc1ccc(cc1)CC3N(C)CC2)N(C)CC4.Cl (stereo not drawn) [MMV007474]	5.9		-93	-1.1
COc1ccc(CCNC(=O)c2cc(S(=O)(=O)N3CC(C)CC(C)C3)ccc2Sc2ccc(F)cc2)cc1OC (stereo not drawn) [MMV007557]	9.35		-72	-2.2
O=C(Nc1ccc(C23CC4CC(CC(c5ccccc5)(C4)C2)C3)cc1)c1cccs1 [MMV007574]		Inactive	12	4
Cc1ccccc1OCCSc1nc2ccc(NC(=O)c3ccccc3)cc2s1 [MMV007577]		Inactive	18	4
COc1ccc(C(=O)C(CCC(CNC(C)(C)C)C(=O)c2ccc(OC)cc2)CNC(C)(C)C)cc1 (stereo not drawn) [MMV007591]	2.64		-109	-1.1
Br.Cc1ccc(C)c(-c2csc(Nc3ccc(C)c(C)c3)n2)c1 [MMV007654]		Inactive	-3	4
CCCCCCOC(=O)C1=C(C)NC(=O)NC1c1ccccc1F (stereo not drawn) [MMV007686]		Inactive	-2	4
COc1ccc(C(C)=O)cc1N1C(=O)C2C(C1=O)C1(c3ccccc3)C(=O)C2(c2ccccc2)C(c2ccc(C)cc2)=C1c1ccc(C)cc1 (stereo not drawn) [MMV007695]		Inactive	17	4
COc1nc(Nc2ccc(C(C)C)cc2)nc(OC)n1 [MMV007808]		Inactive	-9	4
COc1ccc2c(c1)OC(O)(C(F)(F)C(F)(F)F)CC2=O (stereo not drawn) [MMV007839]		Inactive	-23	4

Continued, in another order:

IC50 (read-out: IC50) [µM]	IC50	Structure (SMILES)	Max Resp [%]	Curve Class
29.6		CN(C)CCNc1cc(-c2ccccc2)nc2ccccc12 [MMV006704]	-79	-2.2
	Inactive	Cc1cc(N2CCN(C3CCCC3)CC2)n2c(nc3ccccc32)c1C#N [MMV006706]	-18	4
18.7		c1ccc2cc3c(Nc4ccc(N5CCOCC5)cc4)ccnc3cc2c1 [MMV006861]	-63	-2.2
	Inactive	CCOC(=O)c1cnc2ccc(Cl)cc2c1NCCCN(C)C [MMV006882]	-43	-2.2
	Inactive	C=CCc1c(C)nc2ccccc2c1O [MMV006913]	0	4
	Inactive	Cc1ccc2c(C)nc(Nc3nc(C)cc(-c4ccccc4)n3)nc2c1 [MMV007041]	-50	-2.2
0.59		Cc1cc(Nc2ccc(OCc3ccccc3)cc2)nc2cc(O)ccc12 [MMV007181]	-30	-1.2
	Inactive	COc1ccc(OC)c(C2C3=C(CC(C)(C)CC3=O)N(c3ccc(Cl)c(Cl)c3)C3=C2C(=O)CC(C)(C)C3)c1 [MMV007208]	-28	4
	Inactive	Cc1ccc(F)cc1NC(=O)c1cc(Cl)ccc1Nc1ccccc1 [MMV007275]	-41	-2.2
5.26		CCOc1ccc(Nc2ccnc3cc(Cl)ccc23)cc1 [MMV007285]	-38	-1.2
23.5		Clc1ccc2c(N3CCCC3)ccnc2c1 [MMV007363]	-75	-2.2
	Inactive	CCc1ccc(Nc2cc(C)nc3nc(C)nn23)cc1 [MMV007374]	-9	4
	Inactive	O=C(NCc1ccco1)C1CCN(S(=O)(=O)c2ccc(Br)cc2)CC1 [MMV007430]	29	4
	Inactive	Cc1ccc(Cn2c(N3CCC(C(=O)NCc4cccs4)CC3)nc3ccccc32)cc1 [MMV007564]	-54	-2.2
	Inactive	Cc1ccc(CSCc2ccc(C(=O)NC3CC3)o2)cc1 [MMV007571]	6	4
23.5		CC(=O)NCCc1nc2ccccc2n1Cc1ccc(C(C)C)cc1 [MMV007617]	-70	-2.2
	Inactive	CCOc1ccccc1NC(=O)CN1CCN(C(=O)c2ccco2)CC1 [MMV007791]	1	4
23.5		COc1ccc2nc(C)cc(Nc3ccc(Cl)cc3)c2c1 [MMV007875]	-72	-2.2
